Patent publication US20250236608A1, “EGFR INHIBITORS” (Blueprint Medicines Corporation, priority 2022, published 2025)
pIC50: −log10 of the molar value.

How the values were obtained:
EGFR L858R = EGFR L858R (Homo sapiens (Human), UniProt P00533, L858R); assay: Biochemical EGFR inhibition assay, EGFR L858R; conditions: Caliper mobility shift; 1.0 mM ATP or ATP Km; read-out: Enz EGFR_L858R IC50
EGFR (d746-750) = EGFR (d746-750) (Homo sapiens (Human), UniProt P00533, DEL746-750); assay: Biochemical EGFR inhibition assay, EGFR (d746-750); conditions: Caliper mobility shift; 1.0 mM ATP or ATP Km; read-out: Enz EGFR_Exon19-del746-750 IC50
[1] = molecular target: pEGFR (Tyr1068) in PC-9 cells (Ex19Del) (Homo sapiens (Human), UniProt P00533, DEL746-750); assay: PC-9 pEGFR AlphaLISA assay; assay type: cell-based; conditions: 4 hours incubation, p-EGFR (Tyr1068) AlphaLISA, read-out: Ext pEGFR_PC-9 Ex19Del IC50
How it was run: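 Cells seeded in phenol-free DMEM with 10% FBS adhered overnight at 37° C./5% CO2, then were exposed for 4 hours to a 4-fold, 10-point compound dilution series. After lysis, phospho-EGFR was read by AlphaLISA SureFire Ultra, and IC50 was fitted from percent inhibition versus log concentration.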

pEGFR (Tyr1068) in PC-9 cells (Ex19Del), sequence (P00533 other isoform, or with tags, fused parts or gaps del 746-750): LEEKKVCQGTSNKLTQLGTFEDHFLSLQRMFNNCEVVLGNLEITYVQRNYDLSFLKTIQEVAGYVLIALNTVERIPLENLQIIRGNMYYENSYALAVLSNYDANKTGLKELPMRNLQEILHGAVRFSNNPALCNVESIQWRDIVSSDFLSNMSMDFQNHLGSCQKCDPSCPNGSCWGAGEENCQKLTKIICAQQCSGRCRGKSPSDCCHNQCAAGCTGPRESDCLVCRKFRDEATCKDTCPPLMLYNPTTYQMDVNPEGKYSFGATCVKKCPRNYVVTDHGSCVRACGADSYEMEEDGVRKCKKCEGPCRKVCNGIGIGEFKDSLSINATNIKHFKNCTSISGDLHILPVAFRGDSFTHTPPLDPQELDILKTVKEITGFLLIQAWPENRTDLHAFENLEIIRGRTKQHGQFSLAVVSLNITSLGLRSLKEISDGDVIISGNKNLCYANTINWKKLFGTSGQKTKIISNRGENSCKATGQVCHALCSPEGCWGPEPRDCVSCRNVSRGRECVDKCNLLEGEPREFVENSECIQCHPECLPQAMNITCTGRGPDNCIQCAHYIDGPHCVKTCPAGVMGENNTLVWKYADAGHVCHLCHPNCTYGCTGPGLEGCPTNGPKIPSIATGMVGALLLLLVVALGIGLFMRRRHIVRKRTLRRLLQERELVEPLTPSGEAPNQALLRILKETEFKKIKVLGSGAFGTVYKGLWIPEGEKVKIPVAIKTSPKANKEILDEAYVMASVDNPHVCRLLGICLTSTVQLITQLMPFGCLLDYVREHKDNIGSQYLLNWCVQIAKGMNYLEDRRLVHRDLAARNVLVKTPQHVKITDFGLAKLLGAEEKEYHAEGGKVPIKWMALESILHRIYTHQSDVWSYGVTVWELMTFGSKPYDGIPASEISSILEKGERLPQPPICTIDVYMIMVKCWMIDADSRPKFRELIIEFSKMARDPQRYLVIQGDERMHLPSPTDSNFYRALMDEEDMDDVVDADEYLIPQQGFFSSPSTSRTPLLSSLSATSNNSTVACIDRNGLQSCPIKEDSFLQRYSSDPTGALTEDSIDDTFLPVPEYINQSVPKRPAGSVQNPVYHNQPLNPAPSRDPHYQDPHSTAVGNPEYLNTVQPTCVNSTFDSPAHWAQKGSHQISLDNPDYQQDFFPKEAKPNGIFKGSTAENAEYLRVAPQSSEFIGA
EGFR (d746-750), sequence (P00533 other isoform, or with tags, fused parts or gaps del 1-694/del 746-750 limits assumed): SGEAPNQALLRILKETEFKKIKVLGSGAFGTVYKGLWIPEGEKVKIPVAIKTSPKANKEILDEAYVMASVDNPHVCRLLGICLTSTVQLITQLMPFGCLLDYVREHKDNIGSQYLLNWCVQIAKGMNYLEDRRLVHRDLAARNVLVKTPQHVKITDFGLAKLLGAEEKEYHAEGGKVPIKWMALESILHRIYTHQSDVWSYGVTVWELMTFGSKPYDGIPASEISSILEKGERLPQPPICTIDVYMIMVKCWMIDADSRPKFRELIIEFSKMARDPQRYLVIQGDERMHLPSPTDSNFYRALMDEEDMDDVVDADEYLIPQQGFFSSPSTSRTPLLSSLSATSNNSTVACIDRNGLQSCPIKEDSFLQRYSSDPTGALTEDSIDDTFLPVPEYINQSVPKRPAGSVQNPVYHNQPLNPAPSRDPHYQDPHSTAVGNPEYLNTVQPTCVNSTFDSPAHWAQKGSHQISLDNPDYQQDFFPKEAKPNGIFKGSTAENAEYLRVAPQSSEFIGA
EGFR L858R, sequence (P00533 25-1210 L858R): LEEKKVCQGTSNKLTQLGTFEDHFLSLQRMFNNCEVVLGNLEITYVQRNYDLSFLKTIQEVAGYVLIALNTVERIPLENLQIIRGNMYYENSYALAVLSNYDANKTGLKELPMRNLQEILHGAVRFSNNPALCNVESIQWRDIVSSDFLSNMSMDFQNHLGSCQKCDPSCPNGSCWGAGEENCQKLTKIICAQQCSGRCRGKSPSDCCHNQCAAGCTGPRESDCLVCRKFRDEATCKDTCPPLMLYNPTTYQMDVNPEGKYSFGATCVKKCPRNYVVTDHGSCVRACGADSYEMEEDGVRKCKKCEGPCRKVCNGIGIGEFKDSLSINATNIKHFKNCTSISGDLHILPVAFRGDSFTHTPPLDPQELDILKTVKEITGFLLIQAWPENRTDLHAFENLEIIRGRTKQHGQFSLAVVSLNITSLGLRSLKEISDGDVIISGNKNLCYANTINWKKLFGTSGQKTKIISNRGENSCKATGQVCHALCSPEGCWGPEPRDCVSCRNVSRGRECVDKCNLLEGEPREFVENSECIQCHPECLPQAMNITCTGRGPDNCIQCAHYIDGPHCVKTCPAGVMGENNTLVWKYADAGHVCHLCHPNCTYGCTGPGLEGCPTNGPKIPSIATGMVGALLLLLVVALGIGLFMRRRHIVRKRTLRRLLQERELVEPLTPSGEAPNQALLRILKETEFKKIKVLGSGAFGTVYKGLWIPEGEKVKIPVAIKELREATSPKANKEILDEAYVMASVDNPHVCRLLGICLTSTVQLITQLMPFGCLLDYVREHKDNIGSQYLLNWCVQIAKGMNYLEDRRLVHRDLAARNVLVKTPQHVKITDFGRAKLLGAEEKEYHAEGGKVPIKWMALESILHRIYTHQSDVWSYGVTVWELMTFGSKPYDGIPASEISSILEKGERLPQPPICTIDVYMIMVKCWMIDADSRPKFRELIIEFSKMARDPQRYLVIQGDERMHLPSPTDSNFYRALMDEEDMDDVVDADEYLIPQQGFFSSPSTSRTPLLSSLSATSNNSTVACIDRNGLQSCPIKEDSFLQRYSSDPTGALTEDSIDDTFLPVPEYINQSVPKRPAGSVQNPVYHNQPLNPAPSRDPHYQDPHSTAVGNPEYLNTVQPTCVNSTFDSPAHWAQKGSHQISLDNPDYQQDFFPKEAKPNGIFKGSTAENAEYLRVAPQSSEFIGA

| SMILES | pIC50 (EGFR L858R) | pIC50 (EGFR (d746-750)) | pIC50 [1] |
| --- | --- | --- | --- |
| COc1cc2ncnc(-c3cn(C)nc3-c3ccccc3F)c2nc1NC(=O)[C@@]12COC[C@@H]1C2 (single isomer, unassigned) [Example 387, (1R,5R)—N-(4-(3-(2-fluorophenyl)-1-methyl-1H-pyrazol-4-yl)-7-methoxypyrido[3,2-d]pyrimidin-6-yl)-3-oxabicyclo[3.1.0]hexane-1-carboxamide or (1S,5S)—N-(4-(3-(2-fluorophenyl)-1-methyl-1H-pyrazol-4-yl)-7-methoxypyrido[3,2-d]pyrimidin-6-yl)-3-oxabicyclo[3.1.0]hexane-1-carboxamide] | 8.70 | 9.05 | 8.82 |
| COc1cc2ncnc(-c3cn(C)nc3-c3ccccc3)c2cc1NC(=O)[C@H]1C[C@@H]1C(F)(F)F [Example 287, (1S,2S)—N-(7-methoxy-4-(1-methyl-3-phenyl-1H-pyrazol-4-yl)quinazolin-6-yl)-2-(trifluoromethyl)cyclopropane-1-carboxamide] | 8.35 | 8.92 | 7.89 |
| COc1cc2ncnc(-c3cn(CCN(C)C)nc3-c3ccccc3)c2cc1NC(=O)C12CC(C1)C2 [Example 308, N-(4-(1-(2-(dimethylamino)ethyl)-3-phenyl-1H-pyrazol-4-yl)-7-methoxyquinazolin-6-yl)bicyclo[1.1.1]pentane-1-carboxamide] | 8.14 | 8.46 | 8.21 |
| COc1cc2ncnc(-c3cn(C)nc3-c3ccccc3)c2nc1NC(=O)c1cnn(C(F)(F)F)c1C [Example 427, N-(7-methoxy-4-(1-methyl-3-phenyl-1H-pyrazol-4-yl)pyrido[3,2-d]pyrimidin-6-yl)-5-methyl-1-(trifluoromethyl)-1H-pyrazole-4-carboxamide] | 8.70 | 9.15 | 8.68 |
| COc1cc2ncnc(-c3cn(C)nc3-c3ccccc3)c2nc1O[C@@H](C)c1nnnn1C [Example 45, (S)-7-methoxy-6-(1-(1-methyl-1H-tetrazol-5-yl)ethoxy)-4-(1-methyl-3-phenyl-1H-pyrazol-4-yl)pyrido[3,2-d]pyrimidine] | 8.03 | 8.44 | 7.84 |
| COc1cc2ncnc(-c3cn(C)nc3-c3ccccc3F)c2cc1NC(=O)[C@]12COC[C@H]1C2 (single isomer, unassigned) [Example 241, (1S,5S)—N-(4-(3-(2-fluorophenyl)-1-methyl-1H-pyrazol-4-yl)-7-methoxyquinazolin-6-yl)-3-oxabicyclo[3.1.0]hexane-1-carboxamide or (1R,5R)—N-(4-(3-(2-fluorophenyl)-1-methyl-1H-pyrazol-4-yl)-7-methoxyquinazolin-6-yl)-3-oxabicyclo[3.1.0]hexane-1-carboxamide] | 8.52 | 8.82 | 8.70 |
| COc1cc2ncnc(-c3cn(C)nc3-c3ccccc3)c2nc1O[C@H](C)c1nnnn1C [Example 46, (R)-7-methoxy-6-(1-(1-methyl-1H-tetrazol-5-yl)ethoxy)-4-(1-methyl-3-phenyl-1H-pyrazol-4-yl)pyrido[3,2-d]pyrimidine] | 8.36 | 8.72 | 7.93 |
| COc1cc2ncnc(-c3cn(C)nc3-c3cccc(O)c3)c2nc1NC(=O)C1(C(F)(F)F)CC1 [Example 422, N-(4-(3-(3-hydroxyphenyl)-1-methyl-1H-pyrazol-4-yl)-7-methoxypyrido[3,2-d]pyrimidin-6-yl)-1-(trifluoromethyl)cyclopropane-1-carboxamide] | 8.17 | 9.00 | 8.39 |
| COc1cc2ncnc(-c3cn(C)nc3-c3ccccc3)c2cc1NC(=O)c1ccn(C(C)C)n1 [Example 205, 1-isopropyl-N-(7-methoxy-4-(1-methyl-3-phenyl-1H-pyrazol-4-yl)quinazolin-6-yl)-1H-pyrazole-3-carboxamide] | 8.92 | 9.10 | 9.10 |
| COc1cc2ncnc(-c3cn(C)nc3-c3ccccc3)c2cc1NC(=O)C1(C)CCC1 [Example 348, N-(7-methoxy-4-(1-methyl-3-phenyl-1H-pyrazol-4-yl)quinazolin-6-y1)-1-methylcyclobutane-1-carboxamide] | 8.49 | 8.77 | 8.47 |
| COc1cc2ncnc(-c3cn(C)nc3-c3ccccc3)c2nc1NC(=O)c1cnc(C2CC2)s1 [Example 318, 2-cyclopropyl-N-(7-methoxy-4-(1-methyl-3-phenyl-1H-pyrazol-4-yl)pyrido[3,2-d]pyrimidin-6-yl)thiazole-5-carboxamide] | 9.15 | 9.40 | 9.15 |
| COc1cc2ncnc(-c3cn(C)nc3-c3ccccc3)c2nc1O[C@H](C)c1cn(C)nn1 [Example 43, (R)-7-methoxy-6-(1-(1-methyl-1H-1,2,3-triazol-4-yl)ethoxy)-4-(1-methyl-3-phenyl-1H-pyrazol-4-yl)pyrido[3,2-d]pyrimidine] | 8.85 | 9.10 | 8.72 |
| COc1cc2ncnc(-c3cn(C)nc3-c3ccccc3)c2cc1NC(=O)c1ccnn1C(F)(F)F [Example 204, N-(7-methoxy-4-(1-methyl-3-phenyl-1H-pyrazol-4-yl)quinazolin-6-yl)-1-(trifluoromethyl)-1H-pyrazole-5-carboxamide] | 8.68 | 8.89 | 8.85 |
| COc1cc2ncnc(-c3cn(C)nc3-c3ccccc3)c2cc1NC(=O)c1cncc(F)c1 [Example 327, 5-fluoro-N-(7-methoxy-4-(1-methyl-3-phenyl-1H-pyrazol-4-yl)quinazolin-6-yl)nicotinamide] | 7.98 | 8.29 | 7.98 |
| CCOc1cc2ncnc(-c3cn(C)nc3-c3ccccc3)c2cc1NC(=O)c1cccnc1 [Example 296, N-(7-ethoxy-4-(1-methyl-3-phenyl-1H-pyrazol-4-yl)quinazolin-6-yl)nicotinamide] | 8.85 | 9.15 | 8.96 |
| COc1cc2ncnc(-c3c[nH]nc3-c3ccc(F)cc3)c2nc1NC(=O)[C@]12COC[C@H]1C2 [Example 467, (1S,5S)—N-{4-[3-(4-fluorophenyl)-1H-pyrazol-4-yl]-7-methoxypyrido[3,2-d]pyrimidin-6-yl}-3-oxabicyclo[3.1.0]hexane-1-carboxamide] | 8.26 | 8.89 | 8.28 |
| CCn1cc(-c2ncnc3cc(OC)c(NC(=O)[C@]45C[C@H]4CN(C)C5)nc23)c(-c2ccc(F)cc2)n1 (single isomer, unassigned) [Example 399, (1R,5R)—N-(4-(1-ethyl-3-(4-fluorophenyl)-1H-pyrazol-4-yl)-7-methoxypyrido[3,2-d]pyrimidin-6-yl)-3-methyl-3-azabicyclo[3.1.0]hexane-1-carboxamide or (1S,5S)—N-(4-(1-ethyl-3-(4-fluorophenyl)-1H-pyrazol-4-yl)-7-methoxypyrido[3,2-d]pyrimidin-6-yl)-3-methyl-3-azabicyclo[3.1.0]hexane-1-carboxamide] | 8.92 | 9.05 | 8.89 |
| CCn1cc(-c2ncnc3cc(OC)c([C@@H](C)O)cc23)c(-c2ccccc2)n1 (single isomer, unassigned) [Example 106, (R)-1-(4-(1-ethyl-3-phenyl-1H-pyrazol-4-yl)-7-methoxyquinazolin-6-yl)ethan-1-ol or (S)-1-(4-(1-ethyl-3-phenyl-1H-pyrazol-4-yl)-7-methoxyquinazolin-6-yl)ethan-1-ol] | 8.47 | 8.74 | 7.96 |
